Assay results: patent US20250177378A1, “TREATMENT OF DEPRESSION” (priority 2022, published 2025)
Several values for one entry are separate records, joined by “and”; a condition that tells them apart may be missing. Equal values may be shown once.

What was measured:
individuals with MDD = conditions: switch strategy; cited from earlier work
patients with depression = conditions: 150 mg/day or 300 mg/day, week 8; cited from earlier work
[1] = tested on: patients with major depressive disorder; experiment: Phase 2 randomized double-blind trial, dextromethorphan-bupropion (45 mg/105 mg tablet) vs bupropion (105 mg tablet), twice daily, 6 weeks (NCT03595579)
Description: This randomized, double-blind, multicenter, parallel-group trial evaluated dextromethorphan-bupropion versus the active comparator sustained-release bupropion in patients 18-65 years old with a diagnosis of major depressive disorder of moderate or greater severity. Patients were randomly assigned to receive either dextromethorphan-bupropion (45 mg/105 mg tablet) or bupropion (105 mg tablet), once daily for the first 3 days and twice daily thereafter, for a total of 6 weeks.
This was a 6-week randomized, double-blind, active-controlled phase 2 trial conducted at four sites in the United States from May 2018 to December 2018. The trial used bupropion, an approved antidepressant, as the control because it is a component of dextromethorphan-bupropion.
The clinical review utilized only documentation collected by the sites at screening and baseline, including a complete medical history and clinician- and patient-reported outcome measures (described below, under Efficacy Assessments). […] In order to reduce investigator expectation bias and therefore placebo response, sites were blinded to the primary efficacy variable and the presence of an independent assessor. Sites were provided a blinded protocol that presented the trial as a safety study with exploratory efficacy assessments. Detailed discussion of the efficacy analysis was limited to the statistical analysis plan, which was not provided to the sites.
The study evaluated patients 18-65 years of age with a confirmed diagnosis of major depressive disorder and a current major depressive episode of moderate or greater severity. The diagnosis was established using the DSM-5 criteria for major depressive disorder without psychotic features, based on the Structured Clinical Interview for DSM-5, Clinical Trials Version, and the site investigator's rating of a score ≥25 on the Montgomery-Åsberg Depression Rating Scale (MADRS) and a score ≥4 on the Clinical Global Impressions severity scale (CGI-S). Confirmation of the diagnosis of major depressive disorder and a current major depressive episode of moderate or greater severity was performed by a blinded independent assessor based on a clinical review prior to database lock and study unblinding.
The screening period was up to 4 weeks to allow for any needed taper and washout of prior medications.
Participants were randomized in a 1:1 ratio to receive oral treatment with either dextromethorphan-bupropion or sustained-release bupropion. In order to blind site investigators to the independent confirmation of diagnosis, all patients deemed eligible by the site investigators were randomized to receive study medication and were included in the safety population. As prespecified, patients whose diagnosis or severity was not confirmed by the independent assessor were excluded from the efficacy population.
Dextromethorphan-bupropion tablets and bupropion tablets were identical in appearance. The randomization schedule was computer generated using a permuted block algorithm that randomly allocated study drug to randomization numbers.
The double-blind treatment period was 6 weeks. Patients received their assigned study medication, dextromethorphan-bupropion (45 mg/105 mg tablet) or bupropion (105 mg tablet), once daily for the first 3 days and twice daily thereafter. The bupropion dosage in the control arm (210 mg daily) was selected to match the dosage incorporated in dextromethorphan-bupropion, enabling an appropriate comparison. During the treatment period, patients tracked their mood daily by completing a daily visual analogue mood scale. Study visits occurred 1, 2, 3, 4, and 6 weeks after the baseline visit. A safety follow-up visit occurred at week 7, 1 week after the last dose of study medication. There were no formal discontinuation criteria; patients were free to withdraw consent for any reason, and investigators were free to remove a patient from the study for any safety-related reason.

[2] = Pharmacokinetics of dextromethorphan, bupropion and metabolites after administration of the subject combination

CC(NC(C)(C)C)C(=O)c1cccc(Cl)c1 (racemic) [bupropion]
Remission rate, second line treatment following non-remission with an SSRI (individuals with MDD): about 25% | Reduction from baseline in Hamilton Depression Rating Scale (HAM-D) score (patients with depression): approximately 10 points | Adverse event leading to discontinuation of study drug, patients ([1]; human, in vivo, 6 weeks): 12.5% | Anxiety, patients ([1]; human, in vivo, 6 weeks): 2.1% | Any adverse event, patients ([1]; human, in vivo, 6 weeks): 64.6% | Decreased appetite, patients ([1]; human, in vivo, 6 weeks): 8.3% | Dizziness, patients ([1]; human, in vivo, 6 weeks): 4.2% | Dry mouth, patients ([1]; human, in vivo, 6 weeks): 8.3% | Nausea, patients ([1]; human, in vivo, 6 weeks): 12.5% | Serious adverse event, patients ([1]; human, in vivo, 6 weeks): 0.0% | Severe adverse event, patients ([1]; human, in vivo, 6 weeks): 2.1% | CGI-S score, change from baseline, LS mean ([1]; overall, weeks 1-6): −1.0 | MADRS-6 score, change from baseline, LS mean ([1]; overall, weeks 1-6): −6.6 points | QIDS-SR, LS mean change from baseline ([1]; overall, weeks 1-6): −4.8 | Patients with positive response on item 1 of the C-SSRS (wish to be dead) ([1]; week 1): five | CGI-S score, change from baseline, LS mean ([1]; week 2): −0.9 | Clinical response (≥50% decrease in MADRS score from baseline), patients ([1]; week 2): 27.0% | MADRS total score, change from baseline, LS mean ([1]; week 2): −7.8 points | MADRS-6 score, change from baseline, LS mean ([1]; week 2): −6.0 | Remission (MADRS score ≤10), patients ([1]; week 2): 2.7% and 3% | CGI-S score, change from baseline, LS mean ([1]; week 6): −1.5 | Clinical response (≥50% decrease in MADRS score from baseline), patients ([1]; week 6): 40.5% | MADRS total score, change from baseline, LS mean ([1]; week 6): −12.1 points | MADRS-6 score, change from baseline, LS mean ([1]; week 6): −8.7 | Patients with positive response on item 1 of the C-SSRS (wish to be dead) ([1]; week 6): one | Remission (MADRS score ≤10), patients ([1]; week 6): 16.2% | Remission on the QIDS-SR (score ≤5), patients ([1]; week 6): 21.6% | Reduction from baseline in MADRS total score ([1]; week 6, bupropion arm 210 mg/day): 12 points

COc1ccc2c(c1)[C@]13CCCC[C@@H]1[C@H](C2)N(C)CC3 [dextromethorphan]
Increase of mean elimination half-life vs dextromethorphan given without bupropion ([2]; 8 consecutive days of the subject combination, extensive metabolizers): approximately 3 fold | AUC0-12 decrease when administered with food ([2]; subject combination with food): 14% | Cmax change when administered with food ([2]; subject combination with food): unchanged

CN[C@H]1CC[C@@H](c2ccc(Cl)c(Cl)c2)c2ccccc21 [sertraline]
Remission rate, second line treatment following non-remission with an SSRI (individuals with MDD): about 25%

COc1ccc(C(CN(C)C)C2(O)CCCCC2)cc1 (stereo not drawn) [venlafaxine]
Remission rate, second line treatment following non-remission with an SSRI (individuals with MDD): about 25%
